Laboratory results as given in patent US20250034108A1, “SODIUM CHANNEL BLOCKERS” (NOVARTIS AG, priority 2023, published 2025).

Tests used:
Type in all cases: cell-based
human Nav1.5 [1] = biological target: T1, human Nav1.5 (Homo sapiens (Human), UniProt Q14524); experiment: Qpatch automated patch-clamp, peak Nav1.5 current inhibition, 5-Hz AF-like assay (holding potential -85 mV); conditions: CHO-K1 cells stably expressing human Nav1.5, holding potential -85 mV, Table 5, read-out: Nav1.5 IC50 (5 Hz, AF Rate)
Method in brief: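 CHO-K1 cells stably expressing human Nav1.5, whole-cell automated patch-clamp at room temperature, CsF-based internal. Compounds pre-incubated 3 min each at ascending 0-30 μM; +10 to −85 mV ramp (150 ms) applied at 5 Hz for 12 s from −85 mV holding. IC50 from last-pulse peak current, vehicle-normalized for run-down.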

human Nav1.5 [2] = biological target: T1, human Nav1.5; experiment: Qpatch automated patch-clamp, peak Nav1.5 current inhibition, 1 Hz sinus rate, ventricular condition (holding potential -100 mV); conditions: CHO-K1 cells stably expressing human Nav1.5, without ATX-II
Source text: (§1) Electrophysiology was used to measure the ionic currents in isolated living cells using automated patch-clamp recording, performed using an automated patch-clamp machine called Qpatch (Sophion Bioscience). Two different assay conditions were used to identify compounds with atrial-selective potential. The 5-Hz AF-like assay has more depolarized holding potential at −85 mV to mimic atrial resting membrane potential (RMP) and was used to identify compounds of strong rate-dependence. Active, rate-dependent compounds were then screened at 1 Hz (i.e., sinus rate) at the holding potential of −100 mV to mimic the ventricular scenario and help identify compounds with the largest potency separation or attenuation from the 5-Hz AF-like assay. Such compounds have the potential for treating AF without the QRS liability inherent to Class Ic drugs.
(§2) The sodium current conducted through a cell (via Nav1.5) or electrical signals were processed through a low-pass filter at 5 KHz, re-digitalized and acquired at 20 kHz. Series resistance was not compensated and leak subtraction was performed.
(§3) 1 to 3 million Chinese Hamster Ovary cells (also known as CHO-K1) stably expressing human Nav1.5 were seeded into […] culture flasks with 25 mL medium (consisting of Gibco Dulbecco's Modified Eagle Medium as a base medium with 1% MEM non-essential amino acids, 400 μg/mL Geneticin, 5 μg/mL puromycin and 10% fetal bovine serum) 48-72 hours prior to the experiments. On the day of the experiment, cells were washed once with phosphate-buffered saline (also known as PBS; Gibco) detached with Detachin™ (Genlantis), and re-suspended in CHO—S-SFM II media (Gibco) at 200,000 cells/mL. The CHO—S-SFM II was replaced with assay solutions prior to the assays. Whole-cell currents were recorded at room temperature in the whole-cell configuration. The external aqueous assay solution (pH=7.4; Osm=307-315) contained the following (the concentration for each component is expressed in parentheses in mM): NaCl (140 mM), KCl (4 mM), CaCl2) (2 mM), MgCl2 (1 mM), 4-(2-hydroxyethyl)-1-piperazineethanesulfonic acid, also known as HEPES (10 mM), and glucose (5 mM). The internal aqueous assay solution (pH=7.2; Osm=292-295) contained the following (the concentration for each component is expressed in parentheses in mM): CsF (110 mM), CsCl (10 mM), NaCl (10 mM), HEPES (10 mM), and ethylene glycolbis(β-aminoethyl ether)-N,N,N′,N′-tetraacetic acid, also known as EGTA (10 mM).
(§4) To assess peak Nav1.5 current inhibition mimicking a ventricular condition at sinus rate with or without ATX-II (Nav1.5 IC50 (1 Hz, ATXII) (μM) or (1 Hz, Sinus Rate) (μM)), compounds were first prepared at 10 mM in DMSO, and cells were pre-incubated with test compounds at each concentration for 3 min. in an ascending order of 0, 0.37, 1.1, 3.3, 10 and 30 uM. In the assay with ATX-II (Alomone Labs), 50 nM ATX-II was included during the 3-min. compound incubation. A square pulse (−10 mV; 400 ms and a holding potential at −100 mV) was run at 1 Hz for 25 s until no further inhibition or Nav1.5 current change was observed. The percent inhibition (expressed as ([Iafter compound treatment/Ibefore compound treatment]×100%) is calculated by normalizing the peak current amplitude at the last pulse of each of the 6 compound concentrations by the amplitude before exposure to the test compound. The compiled data was further normalized by vehicle control (DMSO) to account for Nav1.5 current run-down, and IC50 was calculated by Matlab (MathWorks, USA).

human Nav1.5 [3] = biological target: T1, human Nav1.5; experiment: Qpatch automated patch-clamp, peak Nav1.5 current inhibition, 1 Hz with 50 nM ATX-II (holding potential -100 mV); conditions: CHO-K1 cells stably expressing human Nav1.5, read-out: Nav1.5 IC50 (1 Hz, ATXII)
Source text: as §1, §2, §3, §4

T1 sequence (Q14524 whole entry): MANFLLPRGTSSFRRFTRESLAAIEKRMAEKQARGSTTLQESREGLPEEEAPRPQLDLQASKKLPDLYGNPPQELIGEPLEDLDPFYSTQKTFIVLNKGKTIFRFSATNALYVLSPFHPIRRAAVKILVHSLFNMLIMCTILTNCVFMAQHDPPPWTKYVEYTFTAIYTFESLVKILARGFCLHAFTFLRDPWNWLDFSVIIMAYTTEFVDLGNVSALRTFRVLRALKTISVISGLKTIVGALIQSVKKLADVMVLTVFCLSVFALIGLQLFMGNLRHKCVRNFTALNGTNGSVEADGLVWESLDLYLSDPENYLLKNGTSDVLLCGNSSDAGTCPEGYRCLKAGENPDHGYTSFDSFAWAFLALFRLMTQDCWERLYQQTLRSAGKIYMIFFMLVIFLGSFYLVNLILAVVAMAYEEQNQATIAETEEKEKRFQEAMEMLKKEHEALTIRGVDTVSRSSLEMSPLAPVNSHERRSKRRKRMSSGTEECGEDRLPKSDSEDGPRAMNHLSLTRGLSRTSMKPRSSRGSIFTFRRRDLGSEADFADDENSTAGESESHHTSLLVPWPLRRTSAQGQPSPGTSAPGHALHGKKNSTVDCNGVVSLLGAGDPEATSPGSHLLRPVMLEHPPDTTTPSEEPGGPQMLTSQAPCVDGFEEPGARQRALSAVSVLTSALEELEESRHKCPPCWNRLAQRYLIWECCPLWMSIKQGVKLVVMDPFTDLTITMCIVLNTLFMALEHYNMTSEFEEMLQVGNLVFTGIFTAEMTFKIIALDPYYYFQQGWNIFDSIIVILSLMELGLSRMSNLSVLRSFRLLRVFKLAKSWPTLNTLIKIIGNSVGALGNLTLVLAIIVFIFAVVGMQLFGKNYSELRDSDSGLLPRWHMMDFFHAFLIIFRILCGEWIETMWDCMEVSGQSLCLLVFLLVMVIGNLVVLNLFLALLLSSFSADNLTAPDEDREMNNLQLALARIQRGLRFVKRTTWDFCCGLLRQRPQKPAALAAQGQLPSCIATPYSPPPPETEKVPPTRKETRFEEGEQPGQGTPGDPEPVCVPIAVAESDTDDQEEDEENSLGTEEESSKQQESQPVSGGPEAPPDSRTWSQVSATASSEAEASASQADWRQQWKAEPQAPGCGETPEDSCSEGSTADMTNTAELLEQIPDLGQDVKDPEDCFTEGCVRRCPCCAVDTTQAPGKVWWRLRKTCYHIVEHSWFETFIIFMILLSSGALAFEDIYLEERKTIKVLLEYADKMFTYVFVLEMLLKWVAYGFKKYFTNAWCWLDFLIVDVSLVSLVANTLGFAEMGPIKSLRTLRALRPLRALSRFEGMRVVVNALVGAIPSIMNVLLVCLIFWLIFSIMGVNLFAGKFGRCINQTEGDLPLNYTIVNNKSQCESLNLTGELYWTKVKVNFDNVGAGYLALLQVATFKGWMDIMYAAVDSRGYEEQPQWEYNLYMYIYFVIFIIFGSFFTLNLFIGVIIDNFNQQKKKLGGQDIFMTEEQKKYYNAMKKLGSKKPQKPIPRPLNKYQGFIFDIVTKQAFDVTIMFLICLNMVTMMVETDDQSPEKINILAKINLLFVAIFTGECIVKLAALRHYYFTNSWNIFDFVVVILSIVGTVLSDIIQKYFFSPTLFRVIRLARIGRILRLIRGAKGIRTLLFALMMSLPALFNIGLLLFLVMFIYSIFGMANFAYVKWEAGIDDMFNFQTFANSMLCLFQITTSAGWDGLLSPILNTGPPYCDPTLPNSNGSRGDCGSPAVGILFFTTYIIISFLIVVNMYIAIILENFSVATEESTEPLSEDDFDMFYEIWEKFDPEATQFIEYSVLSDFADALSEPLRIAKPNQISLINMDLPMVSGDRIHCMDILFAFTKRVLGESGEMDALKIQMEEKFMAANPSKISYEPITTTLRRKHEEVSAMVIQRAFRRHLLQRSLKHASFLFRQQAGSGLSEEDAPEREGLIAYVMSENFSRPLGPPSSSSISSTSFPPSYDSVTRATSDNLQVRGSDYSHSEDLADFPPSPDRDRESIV

For `CC(O)(CS(N)(=O)=O)c1cccc(-c2ncn(Cc3cc(OC(F)(F)F)ccc3F)n2)n1` (racemic) [Rac-55 + 56, 2-(6-(1-(2-fluoro-5-(trifluoromethoxy)benzyl)-1H-1,2,4-triazol-3-yl)pyridin-2-yl)-2-hydroxypropane-1-sulfonamide], the IC50 (human Nav1.5 [1]) was 4.5 µM, the IC50 (human Nav1.5 [2]) was over 30 µM and the IC50 (human Nav1.5 [3]) was 17 µM.

`CC(O)(CS(N)(=O)=O)c1ccc(Cl)c(-c2nnn(Cc3cc(OC(F)(F)F)ccc3F)n2)c1` (single isomer, unassigned) [Example 7, (R or S)-2-(4-chloro-3-(2-(2-fluoro-5-(trifluoromethoxy)benzyl)-2H-tetrazol-5-yl)phenyl)-2-hydroxypropane-1-sulfonamide] gave an IC50 (human Nav1.5 [1]) of 1.3 µM, an IC50 (human Nav1.5 [2]) of 28 µM and an IC50 (human Nav1.5 [3]) of 15 µM.

For `CC(O)(CS(N)(=O)=O)c1ccc(Cl)c(-c2nnn(Cc3cc(OC(F)(F)F)ccc3F)n2)c1` (single isomer, unassigned) [Example 8, (R or S)-2-(4-chloro-3-(2-(2-fluoro-5-(trifluoromethoxy)benzyl)-2H-tetrazol-5-yl)phenyl)-2-hydroxypropane-1-sulfonamide], the IC50 (human Nav1.5 [1]) was 1.3 µM, the IC50 (human Nav1.5 [2]) was over 30 µM and the IC50 (human Nav1.5 [3]) was 28 µM.

Work on `CC(O)(CS(N)(=O)=O)c1ccc(F)c(-c2nnn(Cc3cc(OC(F)(F)F)ccc3F)n2)c1` (single isomer, unassigned) [Example 9, (R or S)-2-(4-fluoro-3-(2-(2-fluoro-5-(trifluoromethoxy)benzyl)-2H-tetrazol-5-yl)phenyl)-2-hydroxypropane-1-sulfonamide] yielded an IC50 (human Nav1.5 [1]) of 4.1 µM, an IC50 (human Nav1.5 [2]) of over 30 µM and an IC50 (human Nav1.5 [3]) of over 30 µM.

`CC(O)(CS(N)(=O)=O)c1ccc(F)c(-c2nnn(Cc3cc(OC(F)(F)F)ccc3F)n2)c1` (single isomer, unassigned) [Example 10, (R or S)-2-(4-fluoro-3-(2-(2-fluoro-5-(trifluoromethoxy)benzyl)-2H-tetrazol-5-yl)phenyl)-2-hydroxypropane-1-sulfonamide] gave an IC50 (human Nav1.5 [1]) of 1 µM, an IC50 (human Nav1.5 [2]) of over 30 µM and an IC50 (human Nav1.5 [3]) of 11 µM.

Compound `CC(O)(CS(N)(=O)=O)c1cccc(-c2nnn(Cc3cc(OC(F)(F)F)ccc3F)n2)c1F` (single isomer, unassigned) [Example 11, (R or S)-2-(2-fluoro-3-(2-(2-fluoro-5-(trifluoromethoxy)benzyl)-2H-tetrazol-5-yl)phenyl)-2-hydroxypropane-1-sulfonamide] has an IC50 (human Nav1.5 [1]) of 1.7 µM, an IC50 (human Nav1.5 [2]) of 8.9 µM and an IC50 (human Nav1.5 [3]) of 5.6 µM.

For `CC(O)(CS(N)(=O)=O)c1cccc(-c2nnn(Cc3cc(OC(F)(F)F)ccc3F)n2)c1F` (single isomer, unassigned) [Example 12, (R or S)-2-(2-fluoro-3-(2-(2-fluoro-5-(trifluoromethoxy)benzyl)-2H-tetrazol-5-yl)phenyl)-2-hydroxypropane-1-sulfonamide], the IC50 (human Nav1.5 [1]) was 4.2 µM, the IC50 (human Nav1.5 [2]) was 10 µM and the IC50 (human Nav1.5 [3]) was 5.2 µM.

Work on `CC(C(C)(O)c1cccc(-c2nnn(Cc3cc(OC(F)(F)F)ccc3F)n2)n1)S(N)(=O)=O` (single isomer, unassigned) [Example 13, (2R or 2S, 3R or 3S)-3-(6-(2-(2-fluoro-5-(trifluoromethoxy)benzyl)-2H-tetrazol-5-yl)pyridin-2-yl)-3-hydroxybutane-2-sulfonamide] yielded an IC50 (human Nav1.5 [1]) of 4.3 µM, an IC50 (human Nav1.5 [2]) of 12 µM and an IC50 (human Nav1.5 [3]) of over 30 µM.

With `CC(C(C)(O)c1cccc(-c2nnn(Cc3cc(OC(F)(F)F)ccc3F)n2)n1)S(N)(=O)=O` (single isomer, unassigned) [Example 14, (2R or 2S,3R or 3S)-3-(6-(2-(2-fluoro-5-(trifluoromethoxy)benzyl)-2H-tetrazol-5-yl)pyridin-2-yl)-3-hydroxybutane-2-sulfonamide] the IC50 (human Nav1.5 [1]) was 4 µM, the IC50 (human Nav1.5 [2]) was over 30 µM and the IC50 (human Nav1.5 [3]) was 15 µM.

`CC(C(C)(O)c1cccc(-c2nnn(Cc3cc(OC(F)(F)F)ccc3F)n2)n1)S(N)(=O)=O` (single isomer, unassigned) [Example 15, (2R or 2S,3R or 3S)-3-(6-(2-(2-fluoro-5-(trifluoromethoxy)benzyl)-2H-tetrazol-5-yl)pyridin-2-yl)-3-hydroxybutane-2-sulfonamide] gave an IC50 (human Nav1.5 [1]) of 4.1 µM, an IC50 (human Nav1.5 [2]) of over 30 µM and an IC50 (human Nav1.5 [3]) of 24 µM.

`CC(C(C)(O)c1cccc(-c2nnn(Cc3cc(OC(F)(F)F)ccc3F)n2)n1)S(N)(=O)=O` (single isomer, unassigned) [Example 16, (2R or 2S, 3R or 3S)-3-(6-(2-(2-fluoro-5-(trifluoromethoxy)benzyl)-2H-tetrazol-5-yl)pyridin-2-yl)-3-hydroxybutane-2-sulfonamide] gave an IC50 (human Nav1.5 [1]) of 2.8 µM, an IC50 (human Nav1.5 [2]) of 16 µM and an IC50 (human Nav1.5 [3]) of 4.8 µM.

Compound `CC(O)(CS(N)(=O)=O)c1cc(F)cc(-c2nnn(Cc3cc(OC(F)(F)F)ccc3F)n2)c1` (single isomer, unassigned) [Example 23, (R or S)-2-(3-fluoro-5-(2-(2-fluoro-5-(trifluoromethoxy)benzyl)-2H-tetrazol-5-yl)phenyl)-2-hydroxypropane-1-sulfonamide] has an IC50 (human Nav1.5 [1]) of 5.6 µM, an IC50 (human Nav1.5 [2]) of over 30 µM and an IC50 (human Nav1.5 [3]) of over 30 µM.

`CC(O)(CS(N)(=O)=O)c1cc(F)cc(-c2nnn(Cc3cc(OC(F)(F)F)ccc3F)n2)c1` (single isomer, unassigned) [Example 24, (R or S)-2-(3-fluoro-5-(2-(2-fluoro-5-(trifluoromethoxy)benzyl)-2H-tetrazol-5-yl)phenyl)-2-hydroxypropane-1-sulfonamide] was tested, and the IC50 (human Nav1.5 [1]) was 2 µM, the IC50 (human Nav1.5 [2]) was over 30 µM and the IC50 (human Nav1.5 [3]) was 7.8 µM.

For `CC(O)(CS(N)(=O)=O)c1cccc(-c2nnn(Cc3cccc(C(F)(F)F)c3)n2)n1` (single isomer, unassigned) [Example 40, (R or S)-2-hydroxy-2-(6-(2-(3-(trifluoromethyl)benzyl)-2H-tetrazol-5-yl)pyridin-2-yl)propane-1-sulfonamide], the IC50 (human Nav1.5 [1]) was 21 µM and the IC50 (human Nav1.5 [2]) was over 30 µM.

`CC(O)(CS(N)(=O)=O)c1cccc(-c2nnn(Cc3cccc(C(F)(F)F)c3)n2)n1` (single isomer, unassigned) [Example 41, (R or S)-2-hydroxy-2-(6-(2-(3-(trifluoromethyl)benzyl)-2H-tetrazol-5-yl)pyridin-2-yl)propane-1-sulfonamide] showed an IC50 (human Nav1.5 [1]) of over 30 µM and an IC50 (human Nav1.5 [2]) of over 30 µM.

In the case of `CC(C(O)c1cccc(-c2nnn(Cc3cc(OC(F)(F)F)ccc3F)n2)n1)S(N)(=O)=O` (single isomer, unassigned) [Example 51, (JR or 1S,2R or 2S)-1-(6-(2-(2-fluoro-5-(trifluoromethoxy)benzyl)-2H-tetrazol-5-yl)pyridin-2-yl)-1-hydroxypropane-2-sulfonamide], the IC50 (human Nav1.5 [1]) is reported as 25 µM and the IC50 (human Nav1.5 [2]) is reported as over 30 µM.

`CC(O)(CS(N)(=O)=O)c1cccc(-c2ncn(Cc3cc(OC(F)(F)F)ccc3F)n2)n1` (single isomer, unassigned) [Example 55, (R or S)-2-(6-(1-(2-fluoro-5-(trifluoromethoxy)benzyl)-1H-1,2,4-triazol-3-yl)pyridin-2-yl)-2-hydroxypropane-1-sulfonamide] gave an IC50 (human Nav1.5 [1]) of 19 µM and an IC50 (human Nav1.5 [2]) of over 30 µM.

With `CC(O)(CS(N)(=O)=O)c1cccc(-c2ncn(Cc3cc(OC(F)(F)F)ccc3F)n2)n1` (single isomer, unassigned) [Example 56, (R or S)-2-(6-(1-(2-fluoro-5-(trifluoromethoxy)benzyl)-1H-1,2,4-triazol-3-yl)pyridin-2-yl)-2-hydroxypropane-1-sulfonamide] the IC50 (human Nav1.5 [1]) was 16 µM and the IC50 (human Nav1.5 [2]) was over 30 µM.
